# According to patent publication US12559502B2, “Thieno pyrimidines as ferroportin inhibitors” (Global Blood Therapeutics, Inc., priority 2020, dated 2026):
# Biological target: T1, human ferroportin (Homo sapiens, UniProt Q9NP59)
# T1 construct: expressed in transfected cells; host or cells: CHO cells, stably transfected, doxycycline-inducible
# T1 sequence (Q9NP59 1-571): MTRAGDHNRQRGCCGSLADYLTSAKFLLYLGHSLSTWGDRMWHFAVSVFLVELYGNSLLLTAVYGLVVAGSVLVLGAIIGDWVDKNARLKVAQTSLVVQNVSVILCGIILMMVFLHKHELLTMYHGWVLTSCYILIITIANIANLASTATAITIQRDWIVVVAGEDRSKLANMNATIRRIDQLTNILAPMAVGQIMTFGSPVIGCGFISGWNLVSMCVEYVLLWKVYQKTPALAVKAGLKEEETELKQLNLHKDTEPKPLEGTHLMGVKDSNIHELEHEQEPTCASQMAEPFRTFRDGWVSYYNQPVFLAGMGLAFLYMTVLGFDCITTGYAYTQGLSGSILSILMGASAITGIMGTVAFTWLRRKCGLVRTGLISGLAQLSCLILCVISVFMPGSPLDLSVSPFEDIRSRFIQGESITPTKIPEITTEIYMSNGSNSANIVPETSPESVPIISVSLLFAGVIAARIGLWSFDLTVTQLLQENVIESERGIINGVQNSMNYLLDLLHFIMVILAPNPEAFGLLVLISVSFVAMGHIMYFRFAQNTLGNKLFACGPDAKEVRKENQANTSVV
# Experiment: In-vitro ferroportin internalization assay (luciferase reporter)
# Format: cell-based
# Settings: average pEC50; stably-transfected CHO cell line expressing human ferroportin tagged to a luciferase reporter; 6 h incubation with test compound; luciferase activity (Nano-Glo)
# Description: The protocol for this assay is generally as described in WO2018/128828, incorporated herein by reference in its entirety. Functional internalization of ferroportin protein was measured using a stably-transfected CHO cell line expressing the human ferroportin tagged to a luciferase reporter. Cells were plated for 24 h in the presence of ferric ammonium citrate (FAC). Ferroportin protein expression was induced with doxycycline for 24 h. The next day, the compounds were added. Test compounds were dissolved in DMSO. Cells were incubated with the test compounds for 6 h, and subsequently luciferase activity was measured using the Nano-Glo Luciferase Assay System and Glomax (Promega, Madison, WI).
# The average pEC50 was determined for the test compounds.
row,SMILES,pEC50
1,"Cc1sc2nc(-c3cc(O[C@@H]4CCN(C)C4)ccn3)nc(N(C)CC(=O)NC(C)(C)C)c2c1C [Compound 19, N-tert-butyl-2-{[5,6-dimethyl-2-(4-{[(3R)-1-methylpyrrolidin-3-yl]oxy}pyridin-2-yl)thieno[2,3-d]pyrimidin-4-yl](methyl)amino}acetamide]",7.6
2,"COc1cccc(NC(=O)CN(C)c2nc(-c3cc(OCCO)ccn3)nc3sc(C)c(C)c23)c1 [Compound 8, 2-({2-[4-(2-hydroxyethoxy)pyridin-2-yl]-5,6-dimethylthieno[2,3-d]pyrimidin-4-yl}(methyl)amino)-N-(3-methoxyphenyl)acetamide]",7.8
3,"Cc1sc2nc(-c3cc(OCCn4ccnc4)ccn3)nc(N(C)CC(=O)NC(C)(C)C)c2c1C [Compound 24, N-tert-butyl-2-[(2-{4-[2-(1H-imidazol-1-yl)ethoxy]pyridin-2-yl}-5,6-dimethylthieno[2,3-d]pyrimidin-4-yl)(methyl)amino]acetamide]",8
4,"Cc1sc2nc(-c3cc(OCCO)ccn3)nc(N(C)CC(=O)Nc3cccc(F)c3)c2c1C [Compound 9, N-(3-fluorophenyl)-2-({2-[4-(2-hydroxyethoxy)pyridin-2-yl]-5,6-dimethylthieno[2,3-d]pyrimidin-4-yl}(methyl)amino)acetamide]",7.7
5,"COc1ccc(NC(=O)CN(C)c2nc(-c3cc(OCCO)ccn3)nc3sc(C)cc23)cn1 [Compound 16, 2-({2-[4-(2-hydroxyethoxy)pyridin-2-yl]-6-methylthieno[2,3-d]pyrimidin-4-yl}(methyl)amino)-N-(6-methoxypyridin-3-yl)acetamide]",7.6
6,"Cc1sc2nc(-c3cc(OCCN4C[C@@H]5C[C@H]4CO5)ccn3)nc(N(C)CC(=O)NC(C)(C)C)c2c1C [Compound 23, N-tert-butyl-2-{[5,6-dimethyl-2-(4-{2-[(1S,4S)-2-oxa-5-azabicyclo[2.2.1]heptan-5-yl]ethoxy}pyridin-2-yl)thieno[2,3-d]pyrimidin-4-yl](methyl)amino}acetamide]",8.2
7,"Cc1sc2nc(-c3cc(OCCN(C)C)ccn3)nc(N(C)CC(=O)NC3(C(F)(F)F)CC3)c2c1C [Compound 22, 2-[(2-{4-[2-(dimethylamino)ethoxy]pyridin-2-yl}-5,6-dimethylthieno[2,3-d]pyrimidin-4-yl)(methyl)amino]-N-[1-(trifluoromethyl)cyclopropyl]acetamide]",7.5
8,"COc1ccc(NC(=O)CN(C)c2nc(-c3cc(OCCO)ccn3)nc3scc(C)c23)cn1 [Compound 17, 2-({2-[4-(2-hydroxyethoxy)pyridin-2-yl]-5-methylthieno[2,3-d]pyrimidin-4-yl}(methyl)amino)-N-(6-methoxypyridin-3-yl)acetamide]",7.7
9,"Cc1sc2nc(-c3cc(OCCO)ccn3)nc(N(C)CC(=O)NC(C)(C)C)c2c1C [Compound 15, N-tert-butyl-2-({2-[4-(2-hydroxyethoxy)pyridin-2-yl]-5,6-dimethylthieno[2,3-d]pyrimidin-4-yl}(methyl)amino)acetamide]",7.8
10,"COc1ccnc(-c2nc(N(C)CC(=O)Nc3ccc(OC)nc3)c3ccsc3n2)c1 [Compound 7, 2-{[2-(4-methoxypyridin-2-yl)thieno[2,3-d]pyrimidin-4-yl](methyl)amino}-N-(6-methoxypyridin-3-yl)acetamide]",6.6
11,"COc1ccc(NC(=O)CN(C)c2nc(-c3cn(C)cn3)nc3sc(C)c(C)c23)cn1 [Compound 13, 2-{[5,6-dimethyl-2-(1-methyl-1H-imidazol-4-yl)thieno[2,3-d]pyrimidin-4-yl](methyl)amino}-N-(6-methoxypyridin-3-yl)acetamide]",7.1
12,"Cc1sc2nc(-c3cc(OCCN(C)C)ccn3)nc(N(C)CC(=O)NC(C)(C)C)c2c1C [Compound 18, N-tert-butyl-2-[(2-{4-[2-(dimethylamino)ethoxy]pyridin-2-yl}-5,6-dimethylthieno[2,3-d]pyrimidin-4-yl)(methyl)amino]acetamide]",7.8
13,"Cc1ccc(NC(=O)CN(C)c2nc(-c3cc(OCCO)ccn3)nc3sc(C)c(C)c23)cn1 [Compound 10, 2-({2-[4-(2-hydroxyethoxy)pyridin-2-yl]-5,6-dimethylthieno[2,3-d]pyrimidin-4-yl}(methyl)amino)-N-(6-methylpyridin-3-yl)acetamide]",7.6
14,"Cc1sc2nc(-c3cc(OCCN4CCN(C)CC4)ccn3)nc(N(C)CC(=O)NC(C)(C)C)c2c1C [Compound 21, N-tert-butyl-2-[(5,6-dimethyl-2-{4-[2-(4-methylpiperazin-1-yl)ethoxy]pyridin-2-yl}thieno[2,3-d]pyrimidin-4-yl)(methyl)amino]acetamide]",7.8
15,"Cc1sc2nc(-c3cn(C)cn3)nc(N(C)CC(=O)NC(C)(C)C)c2c1C [Compound 14, N-tert-butyl-2-{[5,6-dimethyl-2-(1-methyl-1H-imidazol-4-yl)thieno[2,3-d]pyrimidin-4-yl](methyl)amino}acetamide]",7
16,"COc1ccc(NC(=O)CN(C)c2nc(-c3cc(OCCO)ccn3)nc3sc(C)c(C)c23)cn1 [Compound 11, 2-([2-[4-(2-hydroxyethoxy)pyridin-2-yl]-5,6-dimethylthieno[2,3-d]pyrimidin-4-yl](methyl)amino)-N-(6-methoxypyridin-3-yl)acetamide]",7.5
17,"Cc1sc2nc(-c3cc(OCCN4CCOCC4)ccn3)nc(N(C)CC(=O)NC(C)(C)C)c2c1C [Compound 20, N-tert-butyl-2-[(5,6-dimethyl-2-{4-[2-(morpholin-4-yl)ethoxy]pyridin-2-yl}thieno[2,3-d]pyrimidin-4-yl)(methyl)amino]acetamide]",8
18,"Cc1ccc(NC(=O)CN(C)c2nc(-c3cn(C)cn3)nc3sc(C)c(C)c23)cn1 [Compound 12, 2-{[5,6-dimethyl-2-(1-methyl-1H-imidazol-4-yl)thieno[2,3-d]pyrimidin-4-yl](methyl)amino}-N-(6-methylpyridin-3-yl)acetamide]",7.1
